The conditions of data set [1]: 50-fold excess La^III, ref Thiele et al. [2017], cited from earlier work.
For data set [2] the following is noted: human serum, n = 1, ref Thiele et al. [2017], cited from earlier work.
A short description of data set [3]: La(III) exchange competition assay, 50-fold excess La. The format is physicochemical. Particulars: 50-fold excess La^III, ambient temperature. How it is done: (§1) Varying TLC/iTLC plate systems were selected for different ligands based from results of positive and negative radiolabeling controls: • Method A, for [^225Ac(octapa)]^− and [^225Ac(CHXoctapa)]^−: iTLC-SG plates (Agilent, 2 cm × 10 cm, baseline at 1.5 cm), developed using 10 mM NaOH/9% NaCl solution. Under these conditions free ^225Ac^III remains at the baseline (Rf = 0), while the ^225Ac-ligand complex migrates upwards with the solvent (Rf > 0); or • Method B, for [^225Ac(bispa^2)]^+ and [^225Ac(macropa)]^+: aluminum-backed ultrapure silica gel 60 with 250 μm thickness TLC plates (Fisher, 2 cm × 10 cm, baseline at 1.5 cm), developed using 0.4 M sodium citrate (pH 4) with 10% methanol. Under these conditions free ^225Ac^III migrates with the solvent front (Rf = 1), while ^225Ac-ligand complex remains at the baseline (Rf = 0); (Comba et al. [2017]; Thiele et al. [2017]) or • Method C, for [^225Ac(DOTA)]^−: iTLC-SA plates (Agilent, 2 × 10 cm, baseline at 1.5 cm) and developed using 50 mM EDTA buffer, pH 4. Under these conditions free ^225Ac^III migrates with the solvent front (Rf = 1), while ^225Ac-ligand complex remains at the baseline (Rf = 0); or • Method D, for human serum stability (below): aluminum-backed ultrapure silica gel 60 with 250 um thickness TLC plates (Fisher, 2 cm × 10 cm, baseline at 1.5 cm), developed in 50 mM EDTA, pH 5. Under these conditions, chelate-bound ^225Ac remains at the baseline (Rf = 0), and any ^225Ac^III that has de-complexed from the chelate will travel with the solvent front (Rf = 1). Method D was validated by incubating “free” ^225Ac^III with human serum under analogous conditions to ensure all the activity eluted with the solvent front (Rf ~ 1).
The stability of a radiometal-chelate complex is also often assessed by its ability to withstand transchelation in the presence of excess stable isotopes of the radiometal. Though this is an impossible experiment to perform with Ac since all Ac isotopes are unstable, lanthanum(III) has a similar ionic radius ([…], CN = 6–9) and charge to actinium(III) and is often considered a chemical surrogate to Ac^III. Using non-radioactive metal ions such as La^III as a competitor for ligand complexation is a straightforward method to probe the kinetic off-rate of a pre-formed Ac^III complex, since many ligands that bind Ac^III may also efficiently complex La^III. Herein, ^225Ac-complexes were prepared using the radiolabeling protocols described above and combined with La(NO3)3 (0.1 M, 50 M equivalents compared to the ligand) and allowed to react at ambient temperature. At varying time points (1 h – 7 d), aliquots of the competition reaction mixture (1–5 μL) were spotted on aluminum backed TLC plates and developed using the TLC methods described above.

Data set [4] in a line: Stability of 225Ac complexes in human serum (competition, TLC). The class given is in vitro ADME. The note with it: ambient temperature. How it is done:
as §1
To investigate the stabilities of the ^225Ac-complexes, a competition experiment was performed in the presence of excess human serum and the displacement of radioactivity from the chelator to serum proteins was tracked over the course of seven days. Endogenous metal-binding proteins in serum such as apo-transferrin and metallothionein can compete for and displace chelator-bound metal ions in vivo, preventing successful delivery of the radionuclide to the desired target. The ^225Ac-complexes were prepared using the radiolabeling protocols described above and added to an equal volume (170–180 μL) of human serum (stored at − 5 °C and thawed at ambient temperature). At varying time points (0.5 h to 7 days), small aliquots (1–5 μL) were spotted on iTLC plates using Methods B or D, described above. Representative TLC radio-chromatograms of a serum competition assay with ligand and control are presented in Additional file 1: Figures S2 and S3.

Read-outs that look alike come from different tables or passages of the source.

The source of these data is publication PMC6684685, “Evaluation of polydentate picolinic acid chelating ligands and an α-melanocyte-stimulating hormone derivative for targeted alpha therapy using ISOL-produced ^225Ac” (EJNMMI Radiopharmacy and Chemistry, 2019).

Take `O=C([O-])c1cccc(CN2CCOCCOCCN(Cc3cccc(C(=O)[O-])n3)CCOCCOCC2)n1.[225Ac+3]` [[^225Ac(macropa)]^+]: the “% Stable” value in data set [1] (1 h) is on record as 95%; in data set [1] (1 d), 93%; in data set [1] (2 d), 92%; in data set [1] (3 d), 91%; in data set [1] (6 d), 93%; in data set [1] (7 d column (footnote: 8 d time point)), 91^b %. The “% Stable” value in data set [1] (7 d column (footnote: 8 d time point), listed as [^225Ac(macropa)]^−) is 91%; in data set [2] (0.5 h) it was 96%; in data set [2] (1 h), 95%; in data set [2] (4 h) it was 93%; in data set [2] (1 d), 90%; in data set [2] (2 d), 93%. For the same molecule, the “% Stable” value in data set [2] (3 d) and in data set [2] (7 d) was 90% in each case.
On to `O=C([O-])CN(Cc1cccc(C(=O)[O-])n1)C1CCCCC1N(CC(=O)[O-])Cc1cccc(C(=O)[O-])n1.[225Ac+3]` (centres unmarked) [[^225Ac(CHXoctapa)]^−], for which the “% Stable” value was 81.8 ± 4.3% in data set [3] (5 h); 45.7 ± 3.1% in data set [3] (1 d); 26.5 ± 8.9% in data set [3] (2 d); 18.1 ± 0.4% in data set [3] (3 d); 5.0 ± 0.4% in data set [3] (6 d); 3.9 ± 0.6% in data set [3] (7 d). The “% Stable” value is given as 95.9 ± 1.0% in data set [4] (1 h); 96.8 ± 1.7% in data set [4] (4 h); 97.0 ± 0.9% in data set [4] (1 d); 96.7 ± 1.6% in data set [4] (2 d); 96.1 ± 1.5% in data set [4] (3 d); 96.7 ± 1.2% in data set [4] (4 d). Further, the “% Stable” value in data set [4] (7 d) was found to be 95.6 ± 1.6%.
Turning to `O=C([O-])c1cccc(CN(CCN(Cc2cccc(C(=O)[O-])n2)CP(=O)([O-])[O-])CP(=O)([O-])[O-])n1.[225Ac+3]` [[^225Ac(phospa)]^3−], the “% Stable” value in data set [3] (5 h) came to 0%; in data set [4] (1 h), 81.6 ± 1.1%; in data set [4] (1 d), 81.5 ± 0.2%; in data set [4] (3 d) it was 80.2 ± 1.1%; in data set [4] (4 d) it was 76.2 ± 0.1%; in data set [4] (7 d), 77.1 ± 6.4%.
As to `O=C([O-])CN1CCN(CC(=O)[O-])CCN(CC(=O)[O-])CCN(CC(=O)[O-])CC1.[225Ac+3]` [[^225Ac(DOTA)]^−, reference compound], the “% Stable” value in data set [3] (1 h) was found to be 95.2 ± 3.3%; in data set [3] (5 h), 94.5 ± 3.5%; in data set [3] (1 d), 94.9 ± 2.9%; in data set [3] (2 d) it was 86.2 ± 3.1%; in data set [3] (7 d) it was 77.1 ± 3.6%; in data set [4] (0.5 h), 92.4 ± 4.0%. The “% Stable” value in data set [4] (1 h) amounted to 93.9 ± 4.5%; in data set [4] (4 h), 94.4 ± 3.7%; in data set [4] (1 d), 90.9 ± 5.6%; in data set [4] (2 d) it was 91.8 ± 5.6%; in data set [4] (4 d), 91.1 ± 6.1%; in data set [4] (7 d) it was 84.7 ± 8.1%.
In the case of `O=C([O-])CN(CCN(CC(=O)[O-])Cc1cccc(C(=O)[O-])n1)Cc1cccc(C(=O)[O-])n1.[225Ac+3]` [[^225Ac(octapa)]^−], the “% Stable” value in data set [3] (1 h) is reported as 78.9 ± 2.9%; in data set [3] (5 h), 42.7 ± 0.3%; in data set [3] (1 d) it was 4.7 ± 1.5%; in data set [3] (2 d), 6.1 ± 2.6%; in data set [4] (1 h) it was 97.9 ± 0.9%; in data set [4] (4 h), 96.9 ± 1.5%. Besides, the “% Stable” value is 94.9 ± 1.2% in data set [4] (1 d); 96.1 ± 1.0% in data set [4] (2 d); 94.9 ± 1.1% in data set [4] (3 d); 95.9 ± 1.9% in data set [4] (4 d); 92.9 ± 1.0% in data set [4] (7 d).
